According to patent publication US10532999B2 (priority 2012, dated 2020):
Several values for one entry are separate records, joined by “and”; a condition that tells them apart may be missing. Equal values may be shown once. Read-outs that look alike come from different tables or passages of the source.

What was measured:
[1] = Chemical stability of ML336 with or without dithiothreitol (DTT), LCMS; details: for Averaged Percent ML336 Remaining after 8 h / Percent ML336 Remaining after 8 h: 10 μM in PBS pH 7.4 (1% DMSO), room temperature; for Percent ML336 Remaining after 8 h: single runs
[2] = test system: VEEV; details: read-out: Reported VEEV CPE inhibition; cited from earlier work
[3] = test system: VEEV TC-83; experiment: microbe, parasite or virus in culture; assay type: cell-based; details: Venezuelan equine encephalitis virus, Vero 76, read-out: Assay provided VEEV CPE inhibition
[4] = test system: CYP450 (2C9, 2C19); details: noted liability, Table 2, cited from earlier work
[5] = ML336 without nucleophile (control)

CN1CCN(C)/C(=N/c2ccc([N+](=O)[O-])cc2C(=O)Nc2ccccc2)C1 [ML336, (E)-2-((1,4-dimethylpiperazin-2-ylidene)amino)-5-nitro-N-phenylbenzamide]
adducts detected by LCMS ([1]; 50 μM DTT, sampled every hour for eight hours): no adducts were detected
Averaged Percent ML336 Remaining after 8 h ([1]; ML336 with 5X DTT (50 μM)): 98.96%
Percent ML336 Remaining after 8 h ([1]; ML336 with 5X DTT (50 μM)): 100.36% and 97.55%
Averaged Percent ML336 Remaining after 8 h [1, 5]: 93.92%
Percent ML336 Remaining after 8 h [1, 5]: 96.13% and 91.70%

COc1cc(NC(=O)Nc2cccc(CNC(=O)O[C@H]3CCOC3)c2)ccc1-c1cnco1 [VX-497]
IC50 [2]: 19.2 µM

Cc1cc(Cc2cc(C)cc(C(C)(C)C)c2O)c(O)c(Cc2cc(C)cc(C(C)(C)C)c2O)c1 [antioxidant 80]
IC50 [3]: > 50 µM
CYP450 (2C9, 2C19) inhibition [4]: ~3 µM
CYP450 (2C9, 2C19) inhibition ([4]; listed as Antioxidant 80): about 3 μM

O=C(O)Cc1ccccc1Nc1c(Cl)cccc1Cl [diclofenac sodium]
IC50 [3]: > 50 µM

NS(=O)(=O)c1ccc(-n2c(-c3ccccc3)nc3ccc(Br)cc3c2=O)cc1 [quinazolinone]
IC50 [3]: > 25 µM

NC(=O)c1ncn([C@@H]2O[C@H](CO)[C@@H](O)[C@H]2O)n1 [ribavirin]
IC50 [3]: 126 µM
